Data set [1] is described as follows: Mouse pharmacokinetics study. As to conditions: mouse, BALB/c mice, 10 mg/kg oral gavage, 5% DMS/95% PEG400, plasma. The class given is in vivo. The procedure: Formulated compounds were administered intravenously or orally via gavage to BALB/c mice. Typically, at 0.167, 0.5, 1, 2, 4, 6, 12, and 24 hours post-dose, blood was collected and processed to plasma by centrifugation and stored at −80° C. until analysis. Internal standard was added to each sample prior to protein precipitation with acetonitrile or TCA. The precipitates were filtered through a filter plate and the samples were analyzed by LC/MS/MS. A standard curve was prepared in plasma from typically from 1.0 ng/mL to 3000 ng/mL and processed in the same manner as the samples. Sample analysis was typically performed on a suitable LC/MS/MS system fitted with an analytical UPLC column and compounds eluted from the analytical column with a gradient from 30-95% 0.1% formic acid (v/v) in ACN: 0.1% formic acid (v/v) in water. Mass spectrometric detection of test compound and the internal standard was performed by […] in positive mode. The pharmacokinetics of each compound were analyzed by Phoenix WinNonlin software (Pharsight, St. Louis, Mo.) via noncompartmental analysis. FIG. 4 depicts pharmacokinetic (PK) properties of isomer 1 of compound I-186 following dosing in BALB/c mice.

For the next data set, the system named is H28. The experiment in a line: Anti-proliferation assay in H28 cells. The class given is cell-based. Particulars: Homo sapiens, NCI-H28. The procedure:
(§1) Certain compounds were tested in TEAD reporter assay, and in H226 and H28. A: EC50<0.1 uM; B: 0.1 uM≤EC50≤0.5 uM; C: EC50>0.5 uM.
(§2) Individual cell lines were grown in medium according to supplier instructions and seeded into 96-well plates at a density that ensured logarithmic growth over 72 hours. TEAD inhibitor compounds were administered to cells at a top concentration of 10 μm and subsequently a 10 point 3-fold serial dilution was conducted. After 72 hours, proliferation was quantified using Cell TITERGLO™ (Promega, Inc.) and compared to vehicle control. IC50 and EC50 values were generated using XLFit curve fitting software.
The effect of isomer 2 of compound I-12 on cell proliferation is dependent on the presence of a Hippo/NF2 mutation. No effect is seen by isomer 2 of compound I-12 on the NF2 wild-type H28 cell line.

The test system of the next data set is TEAD. Put plainly: TEAD reporter assay (Hippo Pathway TEAD Reporter - MCF7 cell line, luciferase). The class given is cell-based, human. Particulars: Homo sapiens, MCF7, TEAD Reporter - MCF7 cells; read-out: TEAD Reporter Assay EC50.
From the text: TEAD inhibition can be assayed using Hippo Pathway TEAD Reporter—MCF7 Cell Line (BPS Bioscience, Catalog #: 60618).
The TEAD Reporter—MCF7 cell line contains the firefly luciferase gene under the control of TEAD responsive elements stably integrated into the human breast cancer cell line, MCF7. Inside the cells, basal unphosphorylated YAP/TAZ remains in the nucleus and induces the constitutive expression of luciferase reporter. The cell line is validated for the inhibition of the expression of luciferase reporter by the activators of the Hippo pathway.
• 1) Harvest TEAD Reporter—MCF7 cells from culture in growth medium and seed cells at a density of 35,000 cells per well into white clear-bottom 96-well microplate in 45 μl of assay medium. • 2) Incubate cells at 37° C. in a CO2 incubator for overnight. • 3) Dilute the activators (H2O2 or okadaic acid) stock in assay medium. Add 5 μl of diluted activators to the wells. The final concentration of DMSO in assay medium is 0.1%. • 4) Add 5 μl of assay medium with same concentration of DMSO without activator to control wells. • 5) Add 50 μl of assay medium with DMSO to cell-free control wells (for determining background luminescence). • 6) Set up each treatment in at least triplicate. • 7) Incubate cells at 37° C. in a CO2 incubator for 5-6 hours. • 8) Perform luciferase assay using the ONE-Step™ Luciferase Assay System following the protocol provided: Add 100 μl of ONE-Step™ Luciferase reagent per well and rock at room temperature for ˜15 minutes. Measure luminescence using a luminometer. • 9) Data Analysis: Obtain the background-subtracted luminescence by subtracting the average background luminescence (cell-free control wells) from the luminescence reading of all wells.
as §1

The subject of a further data set is H226. Put plainly: Anti-proliferation assay in H226 cells. The class given is cell-based, human. Particulars: Homo sapiens, NCI-H226, H226 cells; read-out: H226 EC50. The procedure:
as §1, §2

Each structure is given as a SMILES string. pEC50: −log10 of the molar value.

As usually defined, the AUC(0-t) is exposure summed from dosing to a finite time, without extrapolation to infinity. A low value points to less exposure. The Cmax is the peak of the concentration-time curve. What is called pEC50 is the EC50 on a negative log10 scale, so that one unit is a factor of ten. In turn, `C=CC(=O)NC1CCN(Cc2ccc(C(F)(F)F)cc2)CC1` [Compound I-46, N-[1-[[4-(Trifluoromethyl)phenyl]methyl]-4-piperidyl]prop-2-enamide] returned an AUC(0-t) in data set [1] of 1140 ng·h/mL. Also, the Cmax in data set [1] (read-out: Cmax) amounted to 735 ng/mL. The values for the pEC50 in the data set on H28, in the data set with TEAD and in the data set on H226 were < 6.30, 6.30 to 7.00 and 6.30 to 7.00, respectively.
